From patent US12077503B2, “Substituted cyclic amides and their use as herbicides” (FMC CORPORATION, priority 2015, dated 2024)

Key:
Assay type in all cases: in vivo
[1] = system: ragweed (common ragweed, Ambrosia elatior); assay: Test A postemergence; conditions: Ambrosia artemisiifolia, post-emergence, 240 h, read-out: Ragweed plant response rating (0 to 100 scale)
Summary of the method: (§1)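 Ratings of 0 (no effect) to 100 (complete control) come from visual comparison with untreated controls roughly 10 d after treatment. Test chemicals, formulated in a non-phytotoxic solvent mixture with surfactant, were applied either as a preemergence directed soil spray on seeded soil or postemergence to one- to two-leaf plants 2 to 10 cm tall.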

corn (Zea mays) = assay: Test A postemergence; conditions: Zea mays, post-emergence, 240 h, read-out: Corn plant response rating (0 to 100 scale)
Summary of the method: as §1

[2] = system: Galium (catchweed bedstraw, Galium aparine); assay: Test A postemergence; conditions: Galium, post-emergence, 240 h, read-out: Galium plant response rating (0 to 100 scale)
Summary of the method: as §1

[3] = system: pigweed (Amaranthus retroflexus); assay: Test A postemergence; conditions: Amaranthus retroflexus, post-emergence, 240 h, read-out: Pigweed plant response rating (0 to 100 scale)
Summary of the method: as §1

[4] = system: barnyardgrass (Echinochloa crus-galli); assay: Test A postemergence; conditions: Echinochloa crus-galli, post-emergence, 240 h, read-out: Barnyardgrass plant response rating (0 to 100 scale)
Summary of the method: as §1

[5] = system: giant foxtail (Setaria faberii); assay: Test A postemergence; conditions: Setaria faberi, post-emergence, 240 h, read-out: Foxtail, Giant plant response rating (0 to 100 scale)
Summary of the method: as §1

[6] = system: wheat (Triticum aestivum); assay: Test A postemergence; conditions: Triticum aestivum, post-emergence, 240 h, read-out: Wheat plant response rating (0 to 100 scale)
Summary of the method: as §1

Kochia (Kochia scoparia) [7] = assay: Test A postemergence; conditions: Bassia scoparia, post-emergence, 240 h, read-out: Kochia plant response rating (0 to 100 scale)
Summary of the method: as §1

[8] = system: ryegrass, Italian (Italian ryegrass, Lolium multiflorum); assay: Test A postemergence; conditions: Lolium multiflorum, post-emergence, 240 h, read-out: Ryegrass, Italian plant response rating (0 to 100 scale)
Summary of the method: as §1

[9] = system: blackgrass (Alopecurus myosuroides); assay: Test A postemergence; conditions: Alopecurus myosuroides, post-emergence, 240 h, read-out: Blackgrass plant response rating (0 to 100 scale)
Summary of the method: as §1

[10] = system: ragweed (common ragweed, Ambrosia elatior); assay: Test A preemergence; conditions: Ambrosia artemisiifolia, pre-emergence, 240 h, 0 to 100 scale where 0 is no effect and 100 is complete control, read-out: Ragweed plant response rating
Summary of the method: as §1

[11] = system: pigweed (Amaranthus retroflexus); assay: Test A preemergence; conditions: Amaranthus retroflexus, pre-emergence, 240 h, 0 to 100 scale where 0 is no effect and 100 is complete control, read-out: Pigweed plant response rating
[12] = system: barnyardgrass (Echinochloa crus-galli); assay: Test A preemergence; conditions: Echinochloa crus-galli, pre-emergence, 240 h, 0 to 100 scale where 0 is no effect and 100 is complete control, read-out: Barnyardgrass plant response rating
Summary of the method: as §1

[13] = system: giant foxtail (Setaria faberii); assay: Test A preemergence; conditions: Setaria faberi, pre-emergence, 240 h, 0 to 100 scale where 0 is no effect and 100 is complete control, read-out: Foxtail, Giant plant response rating
Summary of the method: as §1

Kochia (Kochia scoparia) [14] = assay: Test A preemergence; conditions: Bassia scoparia, pre-emergence, 240 h, 0 to 100 scale where 0 is no effect and 100 is complete control, read-out: Kochia plant response rating
Summary of the method: as §1

[15] = system: ryegrass, Italian (Italian ryegrass, Lolium multiflorum); assay: Test A preemergence; conditions: Lolium multiflorum, pre-emergence, 240 h, 0 to 100 scale where 0 is no effect and 100 is complete control, read-out: Ryegrass, Italian plant response rating
Summary of the method: as §1

[16] = system: ducksalad (Heteranthera limosa); assay: Test B flooded paddy test; conditions: Heteranthera limosa, 250 g ai/ha, Flood; 0 to 100 scale where 0 is no effect and 100 is complete control; read-out: Ducksalad plant response rating
Summary of the method: (§2)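 Percent control, visually estimated after 13–15 d in the greenhouse on a 0–100 basis, compares treated pots with untreated ones; compound was put into paddy water 3 cm above the soil when plants had two leaves.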

rice (Oryra sativa) = assay: Test B flooded paddy test; conditions: Oryza sativa, 250 g ai/ha, Flood; 0 to 100 scale where 0 is no effect and 100 is complete control; read-out: Rice plant response rating
Summary of the method: as §2

[17] = system: barnyardgrass (Echinochloa crus-galli); assay: Test B flooded paddy test; conditions: Echinochloa crus-galli, 250 g ai/ha, Flood; 0 to 100 scale where 0 is no effect and 100 is complete control; read-out: Barnyardgrass plant response rating
Summary of the method: as §2

[18] = system: sedge, umbrella (small-flower umbrella sedge, Cyperus difformis); assay: Test B flooded paddy test; conditions: Cyperus difformis, 250 g ai/ha, Flood; 0 to 100 scale where 0 is no effect and 100 is complete control; read-out: Sedge, Umbrella plant response rating
Summary of the method: as §2

[19] = 125 g ai/ha, postemergence, visual injury vs untreated controls after approx. 10 d, 0 = no effect, 100 = complete control
[20] = Postemergence, 31 g ai/ha, 0 is no effect, 100 is complete control
[21] = 125 g ai/ha, preemergence, visual injury rating, approximately 10 d

N#Cc1ccc([C@H]2CNC(=O)[C@@H]2C(=O)Nc2cccc(F)c2F)cc1F [Compound 1193] showed a pest or weed control at 125 g/ha [1, 19] of 0%, a pest or weed control at 31 g/ha [1, 20] of 0% and a plant injury at 125 g/ha (corn (Zea mays); [19]) of 0%. It also gave a plant injury at 31 g/ha (corn (Zea mays); [20]) of 0%, a pest or weed control at 125 g/ha [2, 19] of 0% and a pest or weed control at 31 g/ha [2, 20] of 0%. The pest or weed control at 125 g/ha [3, 19] was 0%, the pest or weed control at 31 g/ha [3, 20] was 0% and the pest or weed control at 125 g/ha [4, 19] was 70%. It also gave a pest or weed control at 31 g/ha [4, 20] of 0%, a pest or weed control at 125 g/ha [5, 19] of 30% and a pest or weed control at 31 g/ha [5, 20] of 0%. The plant injury at 125 g/ha [6, 19] was 0%, the plant injury at 31 g/ha [6, 20] was 0% and the pest or weed control at 125 g/ha (Kochia (Kochia scoparia) [7]; [19]) was 0%. For the same compound, the pest or weed control at 31 g/ha (Kochia (Kochia scoparia) [7]; [20]) was 0%, the pest or weed control at 125 g/ha [8, 19] was 0% and the pest or weed control at 31 g/ha [8, 20] was 0%. It also gave a pest or weed control at 125 g/ha [9, 19] of 0%, a pest or weed control at 31 g/ha [9, 20] of 0% and a pest or weed control at 31 g/ha ([10]; 31 g ai/ha, Preemergence) of 0%. The pest or weed control at 125 g/ha [10, 21] was 0%, the pest or weed control at 31 g/ha ([11]; 31 g ai/ha, Preemergence) was 0% and the pest or weed control at 125 g/ha [11, 21] was 0%. For the same compound, the pest or weed control at 31 g/ha ([12]; 31 g ai/ha, Preemergence) was 40%, the pest or weed control at 125 g/ha [12, 21] was 90% and the pest or weed control at 31 g/ha ([13]; 31 g ai/ha, Preemergence) was 0%. It also gave a pest or weed control at 125 g/ha [13, 21] of 80%, a pest or weed control at 31 g/ha (Kochia (Kochia scoparia) [14]; 31 g ai/ha, Preemergence) of 0% and a pest or weed control at 125 g/ha (Kochia (Kochia scoparia) [14]; [21]) of 0%. It also gave a pest or weed control at 31 g/ha ([15]; 31 g ai/ha, Preemergence) of 0%, a pest or weed control at 125 g/ha [15, 21] of 0% and a pest or weed control at 250 g/ha [16] of 90%. For the same compound, the pest or weed control at 250 g/ha (rice (Oryra sativa)) was 30%, the pest or weed control at 250 g/ha [17] was 75% and the pest or weed control at 250 g/ha [18] was 0%.
